In PMC7144120, “Psoralen Derivatives as Inhibitors of Mycobacterium tuberculosis Proteasome” (Molecules, 2020):

Tests used:
Mtb proteasome = molecular target: T1, Mtb proteasome (Mycobacterium tuberculosis, UniProt P9WHT9); assay: biochemical; type: biochemical; settings: for IC50: 50 µM Suc-LLVY-AMC, 30 min preincubation, 37 °C, triplicate, read-out: IC50 against the Mtb proteasome; for Hill Coefficient: from IC50 curve, Mtb proteasome
T1 construct: made in house

ß5i of IP = settings: cited from earlier work; for RA at 10 µM against ß5i of IP: residual activity of β5i in the presence of 10 μM compound; for IC50: read-out: IC50 against ß5i of IP; for Ki: read-out: Ki against ß5i of IP

T1 sequence (P9WHT9 whole entry, looked up): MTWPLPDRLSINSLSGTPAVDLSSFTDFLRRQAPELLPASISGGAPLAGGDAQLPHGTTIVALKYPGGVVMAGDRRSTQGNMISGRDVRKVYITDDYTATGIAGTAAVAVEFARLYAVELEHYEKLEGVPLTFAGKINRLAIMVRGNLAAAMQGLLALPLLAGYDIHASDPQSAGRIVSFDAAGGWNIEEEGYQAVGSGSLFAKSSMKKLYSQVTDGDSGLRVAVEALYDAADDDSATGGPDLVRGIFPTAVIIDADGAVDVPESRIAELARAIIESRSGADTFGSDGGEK

SMILES	RA at 100 µM against Mtb (Mtb proteasome) [%]	RA at 10 µM against ß5i of IP (ß5i of IP) [%]	also measured
Cc1c(CC(=O)NCC#N)c(=O)oc2cc3occ(-c4ccc(Br)cc4)c3cc12 [Compound 60]	87	105	–
Cc1c(C(=O)O)c(=O)oc2cc3occ(-c4ccccc4)c3cc12 [Compound 6]	–	82	IC50 (Mtb proteasome): 2.2 ± 0.3 µM; Hill Coefficient (Mtb proteasome): 0.70
Cc1cc(-c2coc3cc4oc(=O)c(CCC(=O)N(C)CC#N)c(C)c4cc23)c(C)s1 [Compound 43]	55	107	–
Cc1c(CCC(=O)N(C)CC#N)c(=O)oc2cc3occ(-c4ccc(Br)cc4)c3cc12 [Compound 41]	91	107	–
Cc1c(CC(=O)O)c(=O)oc2cc3occ(C(C)(C)C)c3cc12 [Compound 28]	97	85	–
Cc1cc(-c2coc3cc4oc(=O)c(CC(=O)ON5C(=O)CCC5=O)c(C)c4cc23)c(C)o1 [Compound 14]	–	–	IC50 (Mtb proteasome): 9 ± 5 µM; Hill Coefficient (Mtb proteasome): 2.42; IC50 (ß5i of IP): 6.9 µM
Cc1coc2cc3oc(=O)c(CC(=O)N(C)CC#N)c(C)c3cc12 [Compound 54]	95	99	–
Cc1c(CC(=O)ON2C(=O)CCC2=O)c(=O)oc2cc3occ(-c4ccccc4)c3cc12 [Compound 73]	79	–	IC50 (ß5i of IP): 6.36 ± 0.61 µM
Cc1coc2cc3oc(=O)c(CC(=O)ON4C(=O)CCC4=O)c(C)c3cc12 [Compound 76]	53	101	–
Cc1c(CC(=O)O)c(=O)oc2cc3occ(-c4ccc(Br)cc4)c3cc12 [Compound 4]	–	–	IC50 (Mtb proteasome): 4 ± 3 µM; Hill Coefficient (Mtb proteasome): 1.59; Ki (ß5i of IP): 12.7 µM
Cc1c(CCC(=O)O)c(=O)oc2cc3occ(-c4ccc(Cl)cc4)c3cc12 [Compound 2]	–	83	IC50 (Mtb proteasome): 15 ± 2 µM; Hill Coefficient (Mtb proteasome): 1.75
Cc1c(CCC(=O)O)c(=O)oc2c(C)c3occ(-c4ccc(Br)cc4)c3cc12 [Compound 5]	–	93	IC50 (Mtb proteasome): 17 ± 3 µM; Hill Coefficient (Mtb proteasome): 0.70
Cc1c(CCC(=O)O)c(=O)oc2cc3occ(C(C)(C)C)c3cc12 [Compound 19]	95	83	–
Cc1c(CCC(=O)N(C)CC#N)c(=O)oc2cc3occ(-c4ccco4)c3cc12 [Compound 44]	82	86	–
Cc1cc(-c2coc3cc4oc(=O)c(CCC(=O)O)c(C)c4cc23)c(C)o1 [Compound 23]	76	100	–
Cc1cc(-c2coc3cc4oc(=O)c(CC(=O)NCC#N)c(C)c4cc23)c(C)s1 [Compound 63]	95	101	–
Cc1c(CCC(=O)N(C)CC#N)c(=O)oc2cc3occ(C4CCCCC4)c3cc12 [Compound 45]	92	111	–
Cc1c(CCC(=O)NCC#N)c(=O)oc2cc3occ(-c4ccco4)c3cc12 [Compound 49]	100	97	–
Cc1c(CC(=O)ON2C(=O)CCC2=O)c(=O)oc2cc3occ(C(C)(C)C)c3cc12 [Compound 75]	88	53	–
Cc1coc2cc3oc(=O)c(CCC(=O)N(C)CC#N)c(C)c3cc12 [Compound 42]	99	93	–

SMILES	RA at 100 µM against Mtb (Mtb proteasome) [%]	RA at 10 µM against ß5i of IP (ß5i of IP) [%]	also measured
Cc1c(CC(=O)N(C)CC#N)c(=O)oc2cc3occ(-c4ccco4)c3cc12 [Compound 56]	53	103	–
Cc1c(CC(=O)NCC#N)c(=O)oc2cc3occ(C(C)(C)C)c3cc12 [Compound 61]	92	91	–
Cc1c(CCC(=O)O)c(=O)oc2cc3occ(-c4ccccc4)c3cc12 [Compound 16]	72	–	inhibition of the Mtb proteasome (Mtb proteasome): did not inhibit; IC50 (ß5i of IP): 1.6 µM; Ki (ß5i of IP): 1.6 ± 0.7 µM
Cc1c(CC(=O)ON2C(=O)CCC2=O)c(=O)oc2cc3occ(C4CCCCC4)c3cc12 [Compound 78]	98	62	–
Cc1c(CNC(=O)CC#N)c(=O)oc2cc3occ(-c4ccccc4)c3cc12 [Compound 81]	100	101	–
Cc1c(CCC(=O)ON2C(=O)CCC2=O)c(=O)oc2cc3occ(-c4ccc(Br)cc4)c3cc12 [Compound 67]	96	–	IC50 (ß5i of IP): 1.9 ± 0.9 µM
Cc1cc(-c2coc3cc4oc(=O)c(CC(=O)NCC#N)c(C)c4cc23)c(C)o1 [Compound 10]	–	100	IC50 (Mtb proteasome): 3 ± 2 µM; Hill Coefficient (Mtb proteasome): 4.46
COc1ccc(-c2coc3c(C)c4oc(=O)c(CCC(=O)O)c(C)c4cc23)cc1 [Compound 37]	87	87	–
Cc1c(CCC(=O)O)c(=O)oc2cc3occ(-c4ccc(C(=O)O)cc4)c3cc12 [Compound 3]	–	53	IC50 (Mtb proteasome): 31 ± 5 µM; Hill Coefficient (Mtb proteasome): 1.22
Cc1c(CC(=O)NCC#N)c(=O)oc2cc3occ(C4CCCCC4)c3cc12 [Compound 65]	91	99	–
Cc1c(CCC(=O)O)c(=O)oc2c(C)c3occ(-c4ccc(Cl)cc4)c3cc12 [Compound 38]	47	89	–
Cc1c(CCC(=O)ON2C(=O)CCC2=O)c(=O)oc2cc3c(cc12)C(c1ccccc1)CO3 (racemic) [Compound 92]	95	36	–
Cc1c(CCC(=O)ON2C(=O)CCC2=O)c(=O)oc2cc3occ(C(C)(C)C)c3cc12 [Compound 70]	70	41	–
Cc1cc(-c2coc3cc4oc(=O)c(CCC(=O)ON5C(=O)CCC5=O)c(C)c4cc23)c(C)s1 [Compound 72]	95	–	IC50 (ß5i of IP): 1.8 ± 0.8 µM
C=CC(=O)Nc1c(C)c2cc3c(-c4ccccc4)coc3cc2oc1=O [Compound 86]	95	–	IC50 (ß5i of IP): 20.5 ± 1.36 µM
O=C(O)Cc1cc2cc3c(-c4ccccc4)coc3cc2oc1=O [Compound 34]	54	–	Ki (ß5i of IP): 3.8 ± 1.1 µM
Cc1cc(-c2coc3cc4oc(=O)c(CC(=O)N(C)CC#N)c(C)c4cc23)c(C)o1 [Compound 57]	100	96	–
Cc1c(-c2nsc(=O)o2)c(=O)oc2cc3occ(-c4ccccc4)c3cc12 [Compound 88]	84	–	IC50 (ß5i of IP): 0.013 ± 0.004 µM
Cc1c(CC(=O)ON2C(=O)CCC2=O)c(=O)oc2cc3occ(-c4ccco4)c3cc12 [Compound 77]	56	44	–
Cc1c(Cc2nsc(=O)o2)c(=O)oc2cc3occ(-c4ccccc4)c3cc12 [Compound 89]	65	–	IC50 (ß5i of IP): 0.12 ± 0.05 µM

SMILES	RA at 100 µM against Mtb (Mtb proteasome) [%]	RA at 10 µM against ß5i of IP (ß5i of IP) [%]	also measured
Cc1c(CCC(=O)O)c(=O)oc2cc3c(cc12)C(c1ccccc1)CO3 (racemic) [Compound 91]	95	94	–
Cc1c(CCC(=O)NCC#N)c(=O)oc2cc3occ(-c4ccccc4)c3cc12 [Compound 9]	–	66	IC50 (Mtb proteasome): 2 ± 2 µM; Hill Coefficient (Mtb proteasome): 2.27
COc1ccc(-c2coc3cc4oc(=O)c(CC(=O)O)c(C)c4cc23)cc1 [Compound 26]	50	–	Ki (ß5i of IP): 8.2 ± 0.5 µM
Cc1c(CCC(=O)NCC#N)c(=O)oc2cc3occ(C4CCCCC4)c3cc12 [Compound 50]	96	102	–
C/C=C/C(=O)Nc1c(C)c2cc3c(-c4ccccc4)coc3cc2oc1=O [Compound 87]	93	102	–
Cc1c(CC(=O)N(C)CC#N)c(=O)oc2cc3occ(C(C)(C)C)c3cc12 [Compound 53]	97	96	–
Cc1coc2cc3oc(=O)c(CCC(=O)O)c(C)c3cc12 [Compound 20]	93	94	–
Cc1cc(-c2coc3cc4oc(=O)c(CC(=O)O)c(C)c4cc23)c(C)o1 [Compound 32]	100	–	Ki (ß5i of IP): 351 ± 48 µM
Cc1cc(-c2coc3cc4oc(=O)c(CCC(=O)NCC#N)c(C)c4cc23)c(C)s1 [Compound 48]	100	109	–
Cc1c(NC(=O)CC#N)c(=O)oc2cc3occ(-c4ccccc4)c3cc12 [Compound 85]	93	115	–
Cc1c(CCC(=O)O)c(=O)oc2cc3occ(C4CCCCC4)c3cc12 [Compound 24]	71	102	–
Cc1c(CCC(=O)ON2C(=O)CCC2=O)c(=O)oc2c(C)c3occ(-c4ccccc4)c3cc12 [Compound 79]	100	–	IC50 (ß5i of IP): 3.26 ± 1.49 µM
Cc1c(CC(=O)O)c(=O)oc2cc3occ(C4CCCCC4)c3cc12 [Compound 33]	90	–	Ki (ß5i of IP): 198 ± 21 µM
CC=CC(=O)NCc1c(C)c2cc3c(-c4ccccc4)coc3cc2oc1=O [Compound 83]	52	116	–
COc1cccc(-c2coc3cc4oc(=O)c(CC(=O)O)c(C)c4cc23)c1 [Compound 27]	98	–	Ki (ß5i of IP): 7 ± 0.2 µM
COc1cccc(-c2coc3cc4oc(=O)c(CCC(=O)ON5C(=O)CCC5=O)c(C)c4cc23)c1 [Compound 69]	72	–	IC50 (ß5i of IP): 0.93 ± 0.57 µM
Cc1c(CC(=O)O)c(=O)oc2cc3occ(-c4ccco4)c3cc12 [Compound 31]	79	–	Ki (ß5i of IP): 89.3 ± 2 µM
Cc1coc2cc3oc(=O)c(CCC(=O)ON4C(=O)CCC4=O)c(C)c3cc12 [Compound 71]	97	66	–
